Values quoted from earlier work in patent US12285521B2, “Pharmaceutical formulation” (Klaria Pharma Holding AB, priority 2016, dated 2025).

Experiments:
migraine [1] = details: to be achieved within 60 minutes after dosing
migraine [2] = details: subcutaneous administration, 6 mg sumatriptan

time of maximum plasma concentration (after intranasal administration): 1 to 1.5 h
mean intranasal bioavailability (intranasal, after a 20 mg dose): 15.8%
mean maximum concentration (intranasal, after a 20 mg dose): 12.9 ng/mL
Structure (SMILES): CNS(=O)(=O)Cc1ccc2[nH]cc(CCN(C)C)c2c1 [sumatriptan]
plasma level for the most reliable migraine-relieving effect (migraine [1]): over 9.44 ng/mL
people with pain reduced from moderate or severe to none within two hours (migraine [2]): ~60%
